Where two headings read alike, the source gives them in different places.
Experiments:
[1] = tested on: RL Human Follicular Lymphoma Cell Line; experiment: Alamar blue cytotoxicity assay in RL cells; assay type: cell-based; settings: Homo sapiens, 72 h incubation, read-out: Bcl RL Alamar Blue IC50
Protocol: (§1) When RL-cells are exposed to isoxazolidine compounds of the present invention, the inhibitors show a dose-dependent cell-killing in the Alamar blue cytoxicity assay with IC50 values of from about 100 μM to about 1 μM (See Examples). When Panc1 cells are exposed to the isoxazolidine compounds of the present invention in combination with camptothecin, the inhibitors show a synergistic dose-dependent cell killing in the propidium iodide exclusion cell survival assay with IC50 values of from about 100 μM to about 1 μM (See Examples).
• 1) Using 96 well plates, compounds were serially diluted in DMSO from 9 mM to 4 uM • 2) Assay plates were prepared by diluting samples 310 fold into 150 ul of medium containing 30,000 cells/well resulting in a final DMSO concentration of 0.3% and a concentration range from 29 uM to 0.013 uM for each compound. • 3) Plates were incubated at 37 C and 5% CO2 for 72 h • 4) After 72 h, Alamar blue reagent was added to each well and plates read according to manufacturer's instructions
In vitro cytotoxicity data for RL cells is presented below for various compounds of the invention.

Bcl-xL = Bcl-xL (Homo sapiens, UniProt Q07817); experiment: Bcl-xL binding affinity analysis (fluorescence polarization binding assay); parameters: scale not given here
Sequence of Bcl-xL (Q07817 whole entry): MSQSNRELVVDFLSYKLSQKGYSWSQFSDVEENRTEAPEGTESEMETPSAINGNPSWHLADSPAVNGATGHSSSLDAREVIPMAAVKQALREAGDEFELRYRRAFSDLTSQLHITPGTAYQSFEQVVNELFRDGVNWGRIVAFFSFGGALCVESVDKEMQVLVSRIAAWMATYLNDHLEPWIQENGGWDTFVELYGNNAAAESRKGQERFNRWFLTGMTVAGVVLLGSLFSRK
In short: (§2)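 In vitro measurement of compound binding to each protein by fluorescence polarization, described as sensitive and quantitative.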

Bcl-2 = Bcl-2 (Homo sapiens, UniProt P10415); experiment: Bcl-2 binding affinity analysis (fluorescence polarization binding assay)
Sequence of Bcl-2 (P10415 whole entry): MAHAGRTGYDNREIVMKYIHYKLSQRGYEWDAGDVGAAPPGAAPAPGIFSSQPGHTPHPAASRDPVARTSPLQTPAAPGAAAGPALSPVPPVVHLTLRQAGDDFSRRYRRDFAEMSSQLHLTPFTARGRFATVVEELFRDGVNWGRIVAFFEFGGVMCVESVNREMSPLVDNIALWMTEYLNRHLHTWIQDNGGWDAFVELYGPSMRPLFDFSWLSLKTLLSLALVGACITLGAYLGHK
In short: as §2

[2] = tested on: Human Pancreatic Cancer Cell Line Panc1; experiment: Cell death assay (propidium iodide/Hoechst) in Panc1 cells with or without camptothecin; assay type: cell-based; settings: 72 hours, % cell death by propidium iodide/Hoechst
Protocol: as §1
• 1) Compounds were serially diluted in DMSO from a 9 mM stock to a final concentration of 0.004 mM in a 96 well plate. • 2) Assay plates were prepared by diluting compounds 310 fold into 150 ul of medium containing 10,000 cells/well, with or without 3 uM Camptothecin, resulting in a final DMSO concentration of 0.3% and a compound concentration range from 29 uM to […] for each compound. • 3) Assay plates were incubated at 37 C, 5% CO2 for 72 hours. • 4) After 72 hours, propidium iodide and Hoechst dye were added to each well according to manufacturer's instruction. • 5) Plates were imaged on a fluorescence microscope at wavelengths Ex560/Em650 (Propidium iodide) and Ex360/Em465 (Hoechst) • 6) MetaMorph imaging software was used to determine % cell death by dividing the number of propidium iodide stained cells (dead cells) by the number of Hoechst stained cells (all cells), multipled by 100, in each field.
Panc1 invitro cellular data is presented below for various compounds of the invention.

[3] = Homo sapiens, PANC-1, without camptothecin, read-out: Panc1 − Cpt IC50
[4] = with 3 uM Camptothecin, read-out: Panc1 + Cpt IC50
[5] = without camptothecin, read-out: Panc1 − Cpt IC50

SMILES | IC50 [1] [nM] | Bcl-XL binding affinity Ki (Bcl-xL) | Ki (Bcl-2) [nM] | IC50 [2, 3] [nM] | IC50 [2, 4] [nM] | IC50 [2, 5] [nM]
COC(=O)CCNC(=O)c1cccc(-c2cccc(CN3O[C@@H](CO)[C@@H]([C@H](C)O)[C@H]3C(=O)N[C@H]3C[C@H]4C[C@@H]([C@@H]3C)C4(C)C)c2)c1 [Compound 190] | 2000 to 5000 |  |  |  |  | 
CC(C)C[C@@H](CN(C)C)N(Cc1cccc(CN2O[C@@H](CO)C([C@H](C)O)[C@H]2C(=O)N[C@H]2C[C@H]3C[C@@H]([C@@H]2C)C3(C)C)c1)Cc1c(Cl)cccc1[N+](=O)[O-] (some centres unmarked) [Compound 322] | 2000 to 5000 | ♯ | < 800 |  |  | 
CC(C)CC(CN(C)C)N(Cc1cccc(CN2OC(CO)C(C(C)O)C2C(=O)NC2CC3CC(C2C)C3(C)C)c1)Cc1ccc(F)cc1C(F)(F)F (centres unmarked) [Compound 323] | > 5000 | ♯ | < 800 |  |  | 
COc1cccc(OC)c1CN(Cc1cccc(CN2OC(CO)C(C(C)O)C2C(=O)NC2CC3CC(C2C)C3(C)C)c1)C(CC(C)C)CN(C)C (centres unmarked) [Compound 324] | < 2000 | ♯ | < 800 |  |  | 
CC(C)CC(CN(C)C)N(Cc1cccc(CN2OC(CO)C(C(C)O)C2C(=O)NC2CC3CC(C2C)C3(C)C)c1)Cc1cccc(C(F)(F)F)c1 (centres unmarked) [Compound 326] | 2000 to 5000 | ♯ | < 800 |  |  | 
CC(C)CC(CN(C)C)N(Cc1ccc(C(F)(F)F)cc1)Cc1cccc(CN2OC(CO)C(C(C)O)C2C(=O)NC2CC3CC(C2C)C3(C)C)c1 (centres unmarked) [Compound 327] | < 2000 | ♯ | < 800 |  |  | 
CC(O)C1C(CO)ON(Cc2cccc(CN(CCN(C)C)Cc3ccccc3-c3ccccc3)c2)C1C(=O)NC1CC2CC(C1C)C2(C)C (centres unmarked) [Compound 340] | 2000 to 5000 | ♯ | < 800 |  |  | 
CCc1ccccc1CN(CCN(C)C)Cc1cccc(CN2OC(CO)C(C(C)O)C2C(=O)NC2CC3CC(C2C)C3(C)C)c1 (centres unmarked) [Compound 349] | < 2000 | ♯ | < 800 |  |  | 
COc1ccccc1CN(CCN(C)C)Cc1cccc(CN2OC(CO)C(C(C)O)C2C(=O)NC2CC3CC(C2C)C3(C)C)c1 (centres unmarked) [Compound 351] | 2000 to 5000 | ♯ | < 800 |  |  | 
CC(O)C1C(CO)ON(Cc2cccc(CN(CCN(C)C)Cc3ccccc3F)c2)C1C(=O)NC1CC2CC(C1C)C2(C)C (centres unmarked) [Compound 352] | 2000 to 5000 | ♯ | < 800 |  |  | 
CCCCCCCN(CCN(C)C)Cc1cccc(CN2O[C@@H](CO)C([C@H](C)O)[C@H]2C(=O)N[C@H]2C[C@H]3C[C@@H]([C@@H]2C)C3(C)C)c1 (some centres unmarked) [Compound 355] | 2000 to 5000 | ♯ | < 800 |  |  | 
CC(O)C1C(CO)ON(Cc2cccc(CN(CCN(C)C)Cc3cccc(F)c3)c2)C1C(=O)NC1CC2CC(C1C)C2(C)C (centres unmarked) [Compound 356] | > 5000 | ♯ | < 800 |  |  | 
CC(O)C1C(CO)ON(Cc2cccc(CN(CCN(C)C)Cc3cccc(Cl)c3)c2)C1C(=O)NC1CC2CC(C1C)C2(C)C (centres unmarked) [Compound 361] | 2000 to 5000 | ♯ | < 800 |  |  | 
C[C@@H]1[C@@H](NC(=O)[C@@H]2C([C@H](C)O)[C@H](CO)ON2Cc2cccc(CN(CCN(C)C)Cc3cccc(F)c3F)c2)C[C@H]2C[C@@H]1C2(C)C (some centres unmarked) [Compound 362] | 2000 to 5000 | ♯ | < 800 |  |  | 
CC(O)C1C(CO)ON(Cc2cccc(CN(CCN3CCCCC3)Cc3ccccc3)c2)C1C(=O)NC1CC2CC(C1C)C2(C)C (centres unmarked) [Compound 433] |  | ♯ | < 800 | > 2500 | > 2500 | 
CC(O)C1C(CO)ON(Cc2cccc(CN(CCN3CCOCC3)Cc3ccccc3)c2)C1C(=O)NC1CC2CC(C1C)C2(C)C (centres unmarked) [Compound 434] |  | ♯ | < 800 | > 2500 | > 2500 | 

SMILES | IC50 [1] [nM] | Bcl-XL binding affinity Ki (Bcl-xL) | Ki (Bcl-2) [nM] | IC50 [2, 3] [nM] | IC50 [2, 4] [nM] | IC50 [2, 5] [nM]
CC(O)C1C(CO)ON(Cc2cccc(CNC(CN(C)C)C3CCCCC3)c2)C1C(=O)NC1CC2CC(C1C)C2(C)C (centres unmarked) [Compound 443] |  | ♯ | < 800 | > 2500 | > 2500 | 
CC(O)C1C(CO)ON(Cc2cccc(CNC(CC3CCCCC3)CN(C)C)c2)C1C(=O)NC1CC2CC(C1C)C2(C)C (centres unmarked) [Compound 451] |  | ♯ | < 800 |  |  | > 2500
CC(O)C1C(CO)ON(Cc2cccc(CNC(CN(C)C)c3ccccc3)c2)C1C(=O)NC1CC2CC(C1C)C2(C)C (centres unmarked) [Compound 452] |  | ♯ | < 800 | > 2500 | > 2500 | 
CC(O)C1C(CO)ON(Cc2cccc(CNC(Cc3ccccc3)CN(C)C)c2)C1C(=O)NC1CC2CC(C1C)C2(C)C (centres unmarked) [Compound 454] |  | ♯ | < 800 | > 2500 | > 2500 | 
CC(O)C1C(CO)ON(Cc2cccc(CNC(CN(C)C)CC(C)(C)C)c2)C1C(=O)NC1CC2CC(C1C)C2(C)C (centres unmarked) [Compound 455] |  | ♯ | < 800 | > 2500 | > 2500 | 
CC(C)C(CN(C)C)NCc1cccc(CN2OC(CO)C(C(C)O)C2C(=O)NC2CC3CC(C2C)C3(C)C)c1 (centres unmarked) [Compound 462] |  | ♯ | < 800 | > 2500 | > 2500 | 
CC(C)C(CN(C)C)NCc1cccc(CN2OC(CO)C(C(C)O)C2C(=O)NC2CC3CC(C2C)C3(C)C)c1 (centres unmarked) [Compound 463] |  | ♯ | < 800 |  |  | > 2500
CC(O)C1C(CO)ON(Cc2cccc(CN(C)C(Cc3ccccc3)CN(C)C)c2)C1C(=O)NC1CC2CC(C1C)C2(C)C (centres unmarked) [Compound 464] |  | ♯ | < 800 | > 2500 | > 2500 | 
COc1c(CN2O[C@@H](CO)[C@@H]([C@H](C)O)[C@H]2C(=O)N[C@H]2C[C@H]3C[C@@H]([C@@H]2C)C3(C)C)cccc1-c1cccc(C(=O)N[C@H](CN(C)C)CC(C)(C)C)c1 [Compound 479] |  | ♯ | < 800 | 1800 to 2500 | 1300 to 1800 | 
COc1c(CN2O[C@@H](CO)[C@@H]([C@H](C)O)[C@H]2C(=O)N[C@H]2C[C@H]3C[C@@H]([C@@H]2C)C3(C)C)cccc1-c1cccc(C(=O)N[C@H](CC2CCCCC2)CN(C)C)c1 [Compound 489] |  | ♯ | < 800 | > 2500 | 1800 to 2500 | 
CCOc1c(CN2O[C@@H](CO)[C@@H]([C@H](C)O)[C@H]2C(=O)N[C@H]2C[C@H]3C[C@@H]([C@@H]2C)C3(C)C)cccc1-c1cccc(C(=O)N[C@H](CC(C)C)CN(C)C)c1 [Compound 494] |  | ♯ | < 800 | > 2500 | > 2500 | 
CCOc1c(CN2O[C@@H](CO)[C@@H]([C@H](C)O)[C@H]2C(=O)N[C@H]2C[C@H]3C[C@@H]([C@@H]2C)C3(C)C)cccc1-c1cccc(C(=O)NCCN(C)C)c1 [Compound 495] |  | ♯ | < 800 | > 2500 | > 2500 | 
C[C@@H]1[C@@H](NC(=O)[C@@H]2[C@H]([C@H](C)O)[C@H](CO)ON2Cc2cccc(-c3cccc(C(=O)NCCN(C)C)c3)c2OCC2CC2)C[C@H]2C[C@@H]1C2(C)C [Compound 497] |  | ♯ | < 800 | > 2500 | > 2500 | 
CC(O)C1C(CO)ON(Cc2cccc(C(=O)NC(CC3CCCCC3)CN(C)C)c2)C1C(=O)NC1CC2CC(C1C)C2(C)C (centres unmarked) [Compound 501] |  | ♯ | < 800 | 1800 to 2500 | 1300 to 1800 | 
CC(O)C1C(CO)ON(Cc2cccc(C(=O)NC(Cc3ccccc3)CN(C)C)c2)C1C(=O)NC1CC2CC(C1C)C2(C)C (centres unmarked) [Compound 508] |  | ♯ | < 800 | > 2500 | > 2500 | 
C[C@@H]1[C@@H](NC(=O)[C@@H]2[C@H]([C@H](C)O)[C@H](CO)ON2Cc2cccc(N(CCc3ccccc3)CCN(C)C)c2)C[C@H]2C[C@@H]1C2(C)C [Compound 578] |  | ♯ | < 800 | > 2500 | 1800 to 2500 | 

— patent publication US7851637B2, “Compounds and methods for inhibiting the interaction of BCL proteins with binding partners” (Infinity Pharmaceuticals, Inc., priority 2004, dated 2010)
